Laboratory results taken from patent US11464782B2, “Method of treating pain or interstitial cystitis using indole compound” (Japan Tobacco Inc., priority 2018, dated 2022).
Like-named read-outs stand apart in the source and are kept apart here.

Experiments:
[1] = Trough plasma concentrations of Compound A in the human clinical study; format: in vivo; conditions: human, plasma, oral, human plasma
Method: (§1) Compound A was evaluated in a multicenter, randomized, double-blind, placebo-controlled, parallel-group study in subjects with active rheumatoid arthritis. Subjects were randomized to receive orally placebo or an amount of monohydrochloride Compound A sufficient to provide 50 mg, 100 mg, 150 mg, or 200 mg of free form, once daily for 12 weeks.
In the human clinical study described in Example 3, blood samples were collected from subjects prior to dosing at weeks 2, 4, 8, and 12 for the quantification of plasma Compound A levels.

[2] = system: subjects with active rheumatoid arthritis; experiment: Adverse events in rheumatoid arthritis human clinical trial; format: in vivo
Method: as §1
The incidence of serious adverse events (SAEs) and severe treatment-emergent adverse events (TEAEs) in the clinical study was low (3.4% and 2.9%, respectively) in subjects who received treatment with one of the doses of Compound A in the clinical study.

[3] = system: NGF-induced thermal hyperalgesia; experiment: NGF-induced thermal hyperalgesia in rats (plantar test, paw withdrawal latency); format: in vivo, rat
Method: In order to induce a pain-related behavior (withdrawal behavior), NGF was injected into the plantar area of the left hind paw of rats and the thermal latencies/mechanical thresholds were measured. The effects of Compound A on these withdrawal behaviors were investigated. At 2 days before the injection of NGF, the thermal latencies or mechanical thresholds were measured for acclimation to the experimental environment. On the day before injection of NGF, body weights and values of the thermal latencies or mechanical thresholds were obtained. 50 μL of NGF solution was injected intraplantar to left hind paw of rats. 0.5 μg/site of NGF was selected in the evaluation of thermal stimuli and 1 μg/site was selected in that of mechanical stimuli. A monohydrochloride of Compound A (1, 3, or 10 mg/kg) was administered orally at the same time as the NGF injection. The latencies to thermal stimuli were measured at 3 and 6 hours after injection of NGF solution, and the thresholds to mechanical stimuli were measured at 1, 3 and 6 hours after injection of NGF solution. The evaluation was performed as a blind test of each group. The thermal latency was measured using a plantar test apparatus. An infrared heat stimuli was delivered to the plantar area of the hind paw and the time to withdraw the paw from the heat source was recorded automatically as the thermal latency. The measurement was performed 5 times for both hind paws of each animal, the averages of the last 3 values in each hind paw were accounted as the thermal latencies of each animal. The measurement for acclimation was performed only 3 times.

[4] = system: subjects with active rheumatoid arthritis; experiment: Pain evaluation in rheumatoid arthritis human clinical trial (pain NRS); format: in vivo
Method: as §1
Pain was evaluated using a Numerical Rating Scale (NRS) by subjects. The pain NRS represents the severity of their arthritis pain during the past 3 days using an 11-point scale from 0 (no pain) to 10 (maximum pain). An evaluation was made of how much NRS decreased from baseline NRS after drug administration.
Data from EOT (end of treatment), at 2 weeks, and at 12 weeks was obtained. EOT is a measurement point generally used in clinical studies. In a 12-week study, it refers to all analysis at the 12-week time point. However, since some subjects will have discontinued the study midway, the data at the time of discontinuation is treated as the EOT for these subjects (for example, data for week 8 is used as EOT for subjects who discontinued in week 8). 2-week (subjects who completed 2 weeks in full) and 12-week (subjects who completed 12 weeks in full) data are also presented.
Change in pain NRS was evaluated in two subgroups of patients, those with higher baseline pain levels (median baseline pain NRS≥8.0) and those with lower baseline pain levels (median baseline pain NRS<8.0). […] Although the magnitude of decrease in pain NRS was different between lower and higher baseline pain NRS subgroups, both subgroups ultimately achieved a pain NRS score of approximately 4.

[5] = 100 mg, 100 mg QD, read-out: Trough Plasma Concentrations, Median
[6] = 150 mg, 150 mg QD, BLQ (<2.00 ng/mL) set to 0, read-out: Trough Plasma Concentrations, Min-Max
[7] = 150 mg, 150 mg QD, read-out: Trough Plasma Concentrations, Mean (SD)
[8] = 150 mg, 150 mg QD, read-out: Trough Plasma Concentrations, Median
[9] = 200 mg, 200 mg QD, BLQ (<2.00 ng/mL) set to 0, read-out: Trough Plasma Concentrations, Min-Max
[10] = 200 mg, 200 mg QD, read-out: Trough Plasma Concentrations, Mean (SD)
[11] = 200 mg, 200 mg QD, read-out: Trough Plasma Concentrations, Median
[12] = subjects who received one of the doses (50-200 mg once daily, 12 weeks)
[13] = rheumatoid arthritis subjects, 50-200 mg oral once daily

With `C[C@@H](C(=O)N(C)c1ccc2cc(-c3n[nH]c4c3CCC(C)(C)C4)[nH]c2c1)N1CCOCC1` [Compound A, N-[2-(6,6-dimethyl-4,5,6,7-tetrahydro-1H-indazol-3-yl)-1H-indol-6-yl]-N-methyl-(2S)-2-(morpholin-4-yl)propanamide] the concentration at 8 week [1, 5] was 194 ng/mL, the concentration at 12 week ([1]; 100 mg, 100 mg QD, BLQ (<2.00 ng/mL) set to 0, read-out: Trough Plasma Concentrations, Min-Max) was 0 to 728 ng/mL and the concentration at 12 week ([1]; 100 mg, 100 mg QD, read-out: Trough Plasma Concentrations, Mean (SD)) was 178 ng/mL. For the same compound, the concentration at 12 week [1, 5] was 175 ng/mL, the concentration at 2 week [1, 6] was 1.47 to 1110 ng/mL and the concentration at 2 week [1, 7] was 335 ng/mL. It also gave a concentration at 2 week [1, 8] of 300 ng/mL, a concentration at 4 week [1, 6] of 0 to 748 ng/mL and a concentration at 4 week [1, 7] of 309 ng/mL. For the same compound, the concentration at 4 week [1, 8] was 277 ng/mL, the concentration at 8 week [1, 6] was 0 to 743 ng/mL and the concentration at 8 week [1, 7] was 272 ng/mL. The concentration at 8 week [1, 8] was 277 ng/mL, the concentration at 12 week [1, 6] was 0 to 992 ng/mL and the concentration at 12 week [1, 7] was 312 ng/mL. For the same compound, the concentration at 12 week [1, 8] was 246 ng/mL, the concentration at 2 week [1, 9] was 5.01 to 2210 ng/mL and the concentration at 2 week [1, 10] was 521 ng/mL. It also gave a concentration at 2 week [1, 11] of 436 ng/mL, a concentration at 4 week [1, 9] of 0 to 1570 ng/mL and a concentration at 4 week [1, 10] of 450 ng/mL. The concentration at 4 week [1, 11] was 402 ng/mL, the concentration at 8 week [1, 9] was 0 to 1660 ng/mL and the concentration at 8 week [1, 10] was 402 ng/mL. The concentration at 8 week [1, 11] was 392 ng/mL, the concentration at 12 week [1, 9] was 0 to 1170 ng/mL and the concentration at 12 week [1, 10] was 354 ng/mL. For the same compound, the concentration at 12 week [1, 11] was 323 ng/mL, the safety and tolerability ([2]; doses up to 200 mg over 12 weeks of treatment) was “safe and tolerated” and the “incidence of serious adverse events (SAEs)” value [2, 12] was 3.4%. The “incidence of severe treatment-emergent adverse events (TEAEs)” value [2, 12] was 2.9%, the “dose from which significant effects were observed (thermal latency)” value ([3]; at 6 hours after NGF injection, oral) was ≥ 3 mg/kg and the “effect on the decrease in the thermal latencies induced by NGF” value ([3]; compared with the vehicle, 1, 3, 10 mg/kg oral, dose related) was “prevented the decrease in the thermal latencies induced by NGF”. The “pain NRS score ultimately achieved” value ([4]; both lower (<8.0) and higher (≥8.0) baseline pain NRS subgroups, 50-200 mg oral once daily for 12 weeks) was “approximately 4”, the “duration of anti-pain effects (long-lasting)” value [4, 13] was 12 weeks and the “time to anti-pain effects (rapid)” value [4, 13] was ≤ 2 weeks. For the same compound, the “pain in subjects having severe pain” value ([4]; subjects having pain greater than or equal to 8 on the NRS scale) was “reduce pain” and the “decrease in pain NRS by baseline pain subgroup” value ([4]; subjects with higher baseline pain levels (NRS≥8.0) versus lower (NRS<8.0)) was “Larger decreases in pain NRS were observed in subjects that began treatment with higher baseline pain levels”.
